Data taken from ChEMBL document CHEMBL1641486, “Synthesis of 3'-azido-3'-deoxythymidine (AZT)--Cinchona alkaloid conjugates via click chemistry: Toward novel fluorescent markers and cytostatic agents” (2011).
Values after ≈ are worked out from the molar mass of the structure shown.

tested on: KB; experiment: Cytotoxicity against human KB cells assessed as inhibition of protein biosynthesis; assay type: functional; conditions: read-out: ED50 (the source's name)

**Q.** How did the EC50 turn out when `COc1ccc2nccc([C@H](O)[C@H]3CC4CCN3CC4c3cn([C@H]4C[C@H](n5cc(C)c(=O)[nH]c5=O)O[C@@H]4CO)nn3)c2c1` (some centres undefined) was run?
**A.** The EC50 was 12 µg/mL (≈ 20.4 µM).

**Q.** For `C=CC1CN2CCC1C[C@@H]2[C@@H](OCc1cn([C@H]2C[C@H](n3cc(C)c(=O)[nH]c3=O)O[C@@H]2CO)nn1)c1ccnc2ccccc12` (some centres undefined), which EC50 is on record?
**A.** Its EC50 is greater than 100 µg/mL.

**Q.** `COc1ccc2nccc([C@@H](O)[C@@H]3CC4CCN3CC4c3cn([C@H]4C[C@H](n5cc(C)c(=O)[nH]c5=O)O[C@@H]4CO)nn3)c2c1` (some centres undefined) was tested. Which EC50 did it give?
**A.** Its EC50 is 1.3 µg/mL (≈ 2.2 µM).

**Q.** For `Cc1cn([C@H]2C[C@H](n3cc(C4CN5CCC4C[C@H]5[C@H](O)c4ccnc5ccccc45)nn3)[C@@H](CO)O2)c(=O)[nH]c1=O` (some centres undefined), which EC50 is on record?
**A.** The EC50 was 11.6 µg/mL (≈ 20.7 µM).

**Q.** Which EC50 does the source give for `C=CC1CN2CCC1C[C@H]2[C@H](OCc1cn([C@H]2C[C@H](n3cc(C)c(=O)[nH]c3=O)O[C@@H]2CO)nn1)c1ccnc2ccccc12` (some centres undefined) here?
**A.** The EC50 was greater than 100 µg/mL.

**Q.** How did the EC50 turn out when `C=CC1CN2CCC1C[C@@H]2[C@@H](OCc1cn([C@H]2C[C@H](n3cc(C)c(=O)[nH]c3=O)O[C@@H]2CO)nn1)c1ccnc2ccc(OC)cc12` (some centres undefined) was run?
**A.** Its EC50 is 3.9 µg/mL (≈ 6.19 µM).

**Q.** With `Cc1cn([C@H]2C[C@H](n3cc(C4CN5CCC4C[C@@H]5[C@@H](O)c4ccnc5ccccc45)nn3)[C@@H](CO)O2)c(=O)[nH]c1=O` (some centres undefined) as the molecule, how does the EC50 read?
**A.** The EC50 was 21 µg/mL (≈ 37.5 µM).

**Q.** Which EC50 does the source give for `C=CC1CN2CCC1C[C@H]2[C@H](OCc1cn([C@H]2C[C@H](n3cc(C)c(=O)[nH]c3=O)O[C@@H]2CO)nn1)c1ccnc2ccc(OC)cc12` (some centres undefined) here?
**A.** The EC50 was 2.1 µg/mL (≈ 3.33 µM).

**Q.** `Nc1ccn([C@@H]2O[C@H](CO)[C@@H](O)[C@@H]2O)c(=O)n1` [CYTARABINE] was tested. Which EC50 did it give?
**A.** The EC50 was 0.99 µg/mL (≈ 4.07 µM).
